According to the NIST ThermoML archive (doi:10.1016/j.jct.2016.06.010):
Numbers after ± are expanded uncertainties.

Key:
[1] = refractive index (Na D-line) (dimensionless); settings: 293.15 K; 101.33 kPa; Liquid; Standard Abbe refractometry
[2] = 293.15 K; 101.33 kPa; Liquid; Vibrating tube method

refractive index [1]	mass density [2]	SMILES
1.38461 ± 0.001	803.85 ± 2 kg/m3	CCCO [propan-1-ol]
1.39911 ± 0.001	809.75 ± 2 kg/m3	CCCCO [butan-1-ol]

Continued, compound first:

SMILES	refractive index [1]	mass density [2]
CC12CCC(CC1)C(C)(C)O2 [1,3,3-trimethyl-2-oxabicyclo[2.2.2]octane]	1.45756 ± 0.0011	924.84 ± 2 kg/m3
CCO [ethanol]	1.36134 ± 0.001	789.38 ± 2 kg/m3
CO [methanol]	1.32826 ± 0.001	791.2 ± 2 kg/m3
